According to paper PMC8580996, “2-Oxoglutarate derivatives can selectively enhance or inhibit the activity of human oxygenases” (Nature Communications, 2021):
“Also recorded” adds a separate entry of the source.

Experiments:
[1] = molecular target: T1, FIH (Homo sapiens, UniProt Q9NWT6); experiment: SPE-MS FIH turnover (cosubstrate) assay in the absence of 2OG; assay type: biochemical; settings: 330 μM 2OG or 2OG derivative, no 2OG, t = 15 min
Experimental: The ability of 35 synthetic C3/C4-substituted 2OG derivatives, which were prepared via a reported procedure (Supplementary Fig. 1 and Supplementary Methods)[21], to sustain catalysis by purified recombinant FIH in the absence of 2OG was examined using an assay directly monitoring substrate depletion and product formation (i.e., a +16 Da mass shift) by solid-phase extraction (SPE) coupled to mass spectrometry (SPE-MS)[44],[45]. […] (i.e. CA1–20)[47], were used as FIH substrates to test for potential substrate-dependent differences in terms of cosubstrate analog selectivity.
Assay samples were aspirated under vacuum for 0.6 s and loaded onto a C4 SPE cartridge. After loading, the C4 SPE cartridge was washed with 0.1%v/v aqueous formic acid to remove non-volatile buffer salts (5.5 s, 1.5 mL/min). […] The mass spectrometer was operated using the MassHunter Workstation B.08.00 software (Agilent), the mass spectrometer parameters were: capillary voltage (4000 V), nozzle voltage (1000 V), fragmentor voltage (365 V), gas temperature (280 °C), gas flow (13 L/min), sheath gas temperature (350 °C), sheath gas flow (12 L/min). […] Data were exported into Microsoft Excel and used to calculate the % conversion of the hydroxylation reaction using the equation: % conversion = 100 × (integral product peptide)/(integral substrate peptide+integral product peptide). […] Z′-factors were calculated according to the cited literature using Microsoft Excel (Supplementary Fig. 26)[83].

[2] = molecular target: T1, FIH; experiment: Competition assay in a single reaction vessel, FIH-catalyzed hydroxylation (SPE-MS); assay type: biochemical; settings: Supplementary Fig 8b, 100 μM 28, 0 μM 2OG
Experimental: (§1) Mean of three independent runs (n = 3; mean ± SD). […] Cosubstrates: a 20 μM 2OG; b 20 μM 2OG; c 20 μM 1; d 20 μM 12; e 20 μM 12 and 100 μM 2OG; f 100 μM 14. Source data are provided as a Source Data file.
(§2) Mean of three independent runs (n = 3; mean ± SD). […] Source data are provided as a Source Data file.
(§3) Peptide turnover was monitored by SPE-MS using the same instrument configuration (with the exception that the peptides were eluted from the SPE cartridge with 0.1%v/v aqueous formic acid in 80/20 v/v acetonitrile/water) as described above.
(§4) FIH and AspH-catalyzed peptide hydroxylations were analyzed simultaneously using SPE-MS as described in the
(§5) Methods section; competition experiments were performed in the same reaction vessel using equimolar 2OG
(§6) oxygenase and substrate concentrations. […]
(§7) Source data are provided as a Source Data file.
(§8) FIH and AspH-catalyzed peptide hydroxylations were analyzed simultaneously using SPE-
(§9) MS as described in the Methods section; competition experiments were performed in the same reaction vessel
(§10) using equimolar 2OG oxygenase and substrate concentrations. […]
(§11) 2OG, 100 μM 14. Source data are provided as a Source Data file.

[3] = molecular target: T2, AspH (Homo sapiens, UniProt Q12797); experiment: Competition assay in a single reaction vessel, AspH-catalyzed hydroxylation (SPE-MS); assay type: biochemical; settings: Supplementary Fig 8b, 100 μM 28, 0 μM 2OG, after 35 min
T2 construct: the tetratricopeptide repeat domain (His6-AspH315-758), was produced and purified as previously reported; made in house
T2 sequence (Q12797 315-758): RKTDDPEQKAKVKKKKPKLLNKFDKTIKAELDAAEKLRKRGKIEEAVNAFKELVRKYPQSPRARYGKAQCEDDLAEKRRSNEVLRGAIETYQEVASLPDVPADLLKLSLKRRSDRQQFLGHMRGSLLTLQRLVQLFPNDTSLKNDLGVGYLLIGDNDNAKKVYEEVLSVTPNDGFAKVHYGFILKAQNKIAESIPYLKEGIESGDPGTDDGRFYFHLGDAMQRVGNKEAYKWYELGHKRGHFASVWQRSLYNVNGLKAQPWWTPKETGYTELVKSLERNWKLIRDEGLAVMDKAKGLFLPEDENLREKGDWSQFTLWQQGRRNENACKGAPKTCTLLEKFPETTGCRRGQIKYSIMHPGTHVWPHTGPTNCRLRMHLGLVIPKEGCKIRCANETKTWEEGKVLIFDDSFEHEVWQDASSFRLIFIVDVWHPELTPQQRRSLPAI
Experimental: as §1, §2, §3, §4, §5, §6, §7, §8, §9, §10, §11

[4] = molecular target: T1, FIH; experiment: SPE-MS FIH inhibition assay; assay type: biochemical; settings: source data of Table 3, single independent replicates
Experimental: FIH inhibition assays were performed as described, using cosubstrate/cofactor stock solutions (L-ascorbic acid, LAA: 50 mM in MQ-grade water; 2-oxoglutarate, 2OG: 10 mM in MQ-grade water; ammonium iron(II) sulfate hexahydrate, FAS, (NH4)2Fe(SO4)2·6H2O: 400 mM in 20 mM HCl diluted to 1 mM in MQ-grade water), which were freshly prepared from commercially-sourced solids (Sigma Aldrich).
Dimethyl sulfoxide (DMSO) solutions of the 2OG derivatives were dry dispensed across 384-well polypropylene assay plates (Greiner) in an approximately threefold and 11-point dilution series (100 μM top concentration; the final DMSO assay concentration was kept constant at 0.5%v/v) using an ECHO 550 acoustic dispenser (Labcyte). […] Each reaction was performed in technical duplicates in adjacent wells of the assay plates; additionally, assays were performed in two independent duplicates on different days using different inhibitor solutions.
The Enzyme Mixture (25 μL/well), containing 0.3 μM His6-FIH in buffer (50 mM Tris, 50 mM NaCl, pH 7.5), was dispensed across the inhibitor-containing 384-well assay plates with a multidrop dispenser (ThermoFischer Scientific) at 20 °C under an ambient atmosphere. The plates were subsequently centrifuged (1000 rpm, 15 s) and incubated for 15 min at 20 °C. The Substrate Mixture (25 μL/well), containing 10.0 μM HIF-1α788–822[37] substrate, 200 μM LAA, 20.0 μM 2OG, and 20.0 μM FAS in buffer (50 mM Tris, 50 mM NaCl, pH 7.5), was added using the multidrop dispenser. The plates were centrifuged (1000 rpm, 15 s) and after incubating for 15 min, the enzyme reaction was stopped by the addition of 10%v/v aqueous formic acid (5 μL/well). The plates were then centrifuged (1000 rpm, 30 s) and analyzed by MS.
MS-analyses were performed using a RapidFire RF 365 high-throughput sampling robot (Agilent) attached to an iFunnel Agilent 6550 accurate-mass quadrupole time-of-flight mass spectrometer operated in the positive ionization mode. Assay samples were aspirated under vacuum for 0.6 s and loaded onto a C4 SPE cartridge. After loading, the C4 SPE cartridge was washed with 0.1%v/v aqueous formic acid to remove non-volatile buffer salts (5.5 s, 1.5 mL/min). […] The mass spectrometer was operated using the MassHunter Workstation B.08.00 software (Agilent), the mass spectrometer parameters were: capillary voltage (4000 V), nozzle voltage (1000 V), fragmentor voltage (365 V), gas temperature (280 °C), gas flow (13 L/min), sheath gas temperature (350 °C), sheath gas flow (12 L/min). The m/z + 2 (for CA1–20) or +3 (for HIF-1α788–822) charge states of the peptide (substrate) and the hydroxylated peptide (product) were used to extract ion chromatogram data, peak areas were integrated using RapidFire Integrator 4.3.0 (Agilent). Data were exported into Microsoft Excel and used to calculate the % conversion of the hydroxylation reaction using the equation: % conversion = 100 × (integral product peptide)/(integral substrate peptide+integral product peptide). […] Z′-factors were calculated according to the cited literature using Microsoft Excel (Supplementary Fig. 26)[83].
SPE-MS FIH inhibition assays were performed as described in the Methods section.
Tris, 50 mM NaCl, pH 7.5, 20 °C). […]

[5] = molecular target: T2, AspH; design: method as in PMID 34163896; settings: hFX-CP101–119 substrate, 330 μM 2OG or 2OG derivative, t = 15 min; cited from earlier work
[6] = molecular target: T2, AspH; settings: 0.05 μM AspH, 1.0 μM hFX-CP101-119, 3.0 μM 2OG, ref 21 (supplementary ref 1); cited from earlier work

T1 sequence (Q9NWT6 whole entry): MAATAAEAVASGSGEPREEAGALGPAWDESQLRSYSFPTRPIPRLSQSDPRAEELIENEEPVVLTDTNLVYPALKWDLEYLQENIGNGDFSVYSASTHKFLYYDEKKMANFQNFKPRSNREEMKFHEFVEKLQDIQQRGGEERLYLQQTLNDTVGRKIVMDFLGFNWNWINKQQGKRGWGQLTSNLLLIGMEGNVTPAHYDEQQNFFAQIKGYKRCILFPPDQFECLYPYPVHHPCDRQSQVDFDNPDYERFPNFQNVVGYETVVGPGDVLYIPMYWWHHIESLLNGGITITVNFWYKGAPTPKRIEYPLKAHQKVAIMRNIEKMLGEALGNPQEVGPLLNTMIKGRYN

O=C(O)C(=O)c1ccc(C(=O)O)cc1 [compound 28, 4-Carboxyphenylglyoxylic acid]
FIH activity, %-substrate conversion ([1]; CA1–20 substrate): ~10%
FIH activity, %-substrate conversion ([1]; HIF-1α788–822 substrate): < 1%
FIH cosubstrate activity [2]: no cosubstrate activity
AspH conversion [3]: ~ 40%
FIH IC50, independent replicate [4]: not inhibiting
AspH activity, %-substrate conversion [5]: ~80%
IC50 AspH [6]: inactive; also recorded: neither inhibits AspH nor FIH catalysis
